Several values for one entry are separate records, joined by “and”; a condition that tells them apart may be missing. Equal entries are not always repeated.
Assay: xn = mol fraction of the nth substance listed

OCCOCCO + O
Settings	viscosity
293.15 K, 100 kPa, x2 = 0.013	37.31 mPa·s
293.15 K, 100 kPa, x2 = 0.037	35.38 mPa·s and 33.15 mPa·s
293.15 K, 100 kPa, x2 = 0.038	34.7 mPa·s
293.15 K, 100 kPa, x2 = 0.075	34.97 mPa·s
293.15 K, 100 kPa, x2 = 0.082	34.55 mPa·s
298.15 K, 100 kPa, x2 = 0.013	29.02 mPa·s
298.15 K, 100 kPa, x2 = 0.037	27.76 mPa·s
298.15 K, 100 kPa, x2 = 0.075	27.47 mPa·s
298.15 K, 100 kPa, x2 = 0.082	27.12 mPa·s
298.15 K, 101.33 kPa, x2 = 0.1041	25.71 mPa·s
298.15 K, 101.33 kPa, x2 = 0.2105	24.14 mPa·s
298.15 K, 101.33 kPa, x2 = 0.2697	22.9 mPa·s
298.15 K, 101.33 kPa, x2 = 0.4009	19.9 mPa·s
298.15 K, 101.33 kPa, x2 = 0.5145	16.51 mPa·s
298.15 K, 101.33 kPa, x2 = 0.6157	12.99 mPa·s
298.15 K, 101.33 kPa, x2 = 0.7095	9.442 mPa·s
298.15 K, 101.33 kPa, x2 = 0.825	5.193 mPa·s
298.15 K, 101.33 kPa, x2 = 0.9059	2.772 mPa·s
303.15 K, 100 kPa, x2 = 0.013	23.06 mPa·s
303.15 K, 100 kPa, x2 = 0.038	21.92 mPa·s
303.15 K, 100 kPa, x2 = 0.075	21.95 mPa·s
303.15 K, 101 kPa, x1 = 0.002	0.836 mPa·s
303.15 K, 101 kPa, x1 = 0.004	0.863 mPa·s
303.15 K, 101 kPa, x1 = 0.005	0.883 mPa·s
303.15 K, 101 kPa, x1 = 0.007	0.91 mPa·s
303.15 K, 101 kPa, x1 = 0.009	0.938 mPa·s
303.15 K, 101 kPa, x1 = 0.01	0.975 mPa·s and 1.02 mPa·s and 1.076 mPa·s
303.15 K, 101 kPa, x1 = 0.018	1.171 mPa·s
303.15 K, 101.33 kPa, x1 = 0.0004	0.778 mPa·s
303.15 K, 101.33 kPa, x1 = 0.0007	0.785 mPa·s
303.15 K, 101.33 kPa, x1 = 0.0015	0.788 mPa·s
303.15 K, 101.33 kPa, x1 = 0.0027	0.804 mPa·s
303.15 K, 101.33 kPa, x1 = 0.0047	0.836 mPa·s
303.15 K, 101.33 kPa, x1 = 0.0193	1.02 mPa·s
303.15 K, 101.33 kPa, x1 = 0.0548	1.579 mPa·s
303.15 K, 101.33 kPa, x1 = 0.0991	2.467 mPa·s
303.15 K, 101.33 kPa, x1 = 0.1966	4.98 mPa·s
303.15 K, 101.33 kPa, x1 = 0.2956	7.943 mPa·s
303.15 K, 101.33 kPa, x1 = 0.3956	10.97 mPa·s
303.15 K, 101.33 kPa, x1 = 0.4905	13.62 mPa·s
303.15 K, 101.33 kPa, x1 = 0.6406	17.06 mPa·s
303.15 K, 101.33 kPa, x1 = 0.8543	20.37 mPa·s
308.15 K, 100 kPa, x2 = 0.013	18.69 mPa·s
308.15 K, 100 kPa, x2 = 0.037	18.11 mPa·s and 16.84 mPa·s
308.15 K, 100 kPa, x2 = 0.082	17.7 mPa·s
308.15 K, 101 kPa, x1 = 0.002	0.736 mPa·s
308.15 K, 101 kPa, x1 = 0.004	0.753 mPa·s
308.15 K, 101 kPa, x1 = 0.005	0.805 mPa·s
308.15 K, 101 kPa, x1 = 0.007	0.832 mPa·s
308.15 K, 101 kPa, x1 = 0.009	0.867 mPa·s
308.15 K, 101 kPa, x1 = 0.01	0.902 mPa·s and 0.938 mPa·s and 0.991 mPa·s
308.15 K, 101 kPa, x1 = 0.018	1.082 mPa·s
308.15 K, 101 kPa, x1 = 0.02	1.028 mPa·s
308.15 K, 101 kPa, x1 = 0.7525	15.65 mPa·s
308.15 K, 101.33 kPa, x1 = 0.0004	0.704 mPa·s
308.15 K, 101.33 kPa, x1 = 0.0007	0.71 mPa·s
308.15 K, 101.33 kPa, x1 = 0.0015	0.717 mPa·s
308.15 K, 101.33 kPa, x1 = 0.0027	0.73 mPa·s
308.15 K, 101.33 kPa, x1 = 0.0047	0.749 mPa·s
308.15 K, 101.33 kPa, x1 = 0.0193	0.905 mPa·s
308.15 K, 101.33 kPa, x1 = 0.0991	2.107 mPa·s
308.15 K, 101.33 kPa, x1 = 0.1966	4.169 mPa·s
308.15 K, 101.33 kPa, x1 = 0.2956	6.484 mPa·s
308.15 K, 101.33 kPa, x1 = 0.3956	8.911 mPa·s
308.15 K, 101.33 kPa, x1 = 0.4905	10.95 mPa·s
308.15 K, 101.33 kPa, x1 = 0.5794	12.64 mPa·s
308.15 K, 101.33 kPa, x1 = 0.775	15.47 mPa·s
308.15 K, 101.33 kPa, x1 = 0.8543	16.25 mPa·s
308.15 K, 101.33 kPa, x1 = 0.917	16.82 mPa·s
313.15 K, 100 kPa, x2 = 0.013	15.39 mPa·s
313.15 K, 100 kPa, x2 = 0.037	14.96 mPa·s
313.15 K, 100 kPa, x2 = 0.038	15.25 mPa·s
313.15 K, 100 kPa, x2 = 0.075	14.8 mPa·s
313.15 K, 101 kPa, x1 = 0.002	0.67 mPa·s
313.15 K, 101 kPa, x1 = 0.004	0.685 mPa·s
313.15 K, 101 kPa, x1 = 0.005	0.703 mPa·s
313.15 K, 101 kPa, x1 = 0.007	0.738 mPa·s
313.15 K, 101 kPa, x1 = 0.009	0.78 mPa·s
313.15 K, 101 kPa, x1 = 0.01	0.83 mPa·s and 0.872 mPa·s and 0.907 mPa·s
313.15 K, 101 kPa, x1 = 0.018	0.994 mPa·s
313.15 K, 101 kPa, x1 = 0.02	0.958 mPa·s
318.15 K, 100 kPa, x2 = 0.013	12.84 mPa·s
318.15 K, 100 kPa, x2 = 0.037	12.51 mPa·s
318.15 K, 100 kPa, x2 = 0.038	12.4 mPa·s
318.15 K, 100 kPa, x2 = 0.075	12.37 mPa·s
318.15 K, 101 kPa, x1 = 0.002	0.612 mPa·s
318.15 K, 101 kPa, x1 = 0.004	0.621 mPa·s
318.15 K, 101 kPa, x1 = 0.005	0.654 mPa·s
318.15 K, 101 kPa, x1 = 0.007	0.688 mPa·s
318.15 K, 101 kPa, x1 = 0.009	0.729 mPa·s
318.15 K, 101 kPa, x1 = 0.01	0.779 mPa·s and 0.821 mPa·s and 0.864 mPa·s
318.15 K, 101 kPa, x1 = 0.018	0.949 mPa·s
318.15 K, 101 kPa, x1 = 0.02	0.906 mPa·s
323.15 K, 100 kPa, x2 = 0.013	10.85 mPa·s
323.15 K, 100 kPa, x2 = 0.037	10.58 mPa·s and 9.873 mPa·s
323.15 K, 100 kPa, x2 = 0.038	10.49 mPa·s
323.15 K, 100 kPa, x2 = 0.075	10.44 mPa·s
323.15 K, 100 kPa, x2 = 0.082	10.35 mPa·s
323.15 K, 101 kPa, x1 = 0.002	0.555 mPa·s
323.15 K, 101 kPa, x1 = 0.004	0.571 mPa·s
323.15 K, 101 kPa, x1 = 0.005	0.587 mPa·s
323.15 K, 101 kPa, x1 = 0.007	0.619 mPa·s
323.15 K, 101 kPa, x1 = 0.009	0.667 mPa·s
323.15 K, 101 kPa, x1 = 0.01	0.707 mPa·s and 0.747 mPa·s and 0.78 mPa·s
323.15 K, 101 kPa, x1 = 0.018	0.869 mPa·s
323.15 K, 101 kPa, x1 = 0.02	0.828 mPa·s

Source: the CheMixHub viscosity set
